How the values were obtained:
[1] = target: T1, Human plasma kallikrein (Homo sapiens, UniProt P03952); assay: Plasma Kallikrein Assay; format: biochemical; settings: purified Human plasma kallikrein 0.5 nM, substrate Acetyl-K-P-R-AFC, pH 7.4
T1 construct: yields a heavy chain (371 amino acids) and a light chain (248 amino acids); purchased Enzyme Research Laboratories

[2] = target: human factor XIa (Homo sapiens, UniProt P03951); assay: Factor XIa Assay; format: biochemical; settings: human factor XIa 0.04 nM, substrate GPR-AFC, 30 min pre-incubation at 25° C., pH 7.4; read-out: FXIa IC50
human factor XIa, sequence (P03951 388-625 limits assumed): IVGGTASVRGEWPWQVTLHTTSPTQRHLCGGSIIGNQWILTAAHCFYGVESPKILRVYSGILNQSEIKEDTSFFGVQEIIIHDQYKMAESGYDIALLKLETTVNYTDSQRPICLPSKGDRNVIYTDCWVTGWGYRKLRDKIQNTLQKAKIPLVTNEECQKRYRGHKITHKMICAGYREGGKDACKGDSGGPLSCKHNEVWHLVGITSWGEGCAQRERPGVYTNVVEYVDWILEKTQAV
human factor XIa, sequence (P03951 19-387 partner limits assumed): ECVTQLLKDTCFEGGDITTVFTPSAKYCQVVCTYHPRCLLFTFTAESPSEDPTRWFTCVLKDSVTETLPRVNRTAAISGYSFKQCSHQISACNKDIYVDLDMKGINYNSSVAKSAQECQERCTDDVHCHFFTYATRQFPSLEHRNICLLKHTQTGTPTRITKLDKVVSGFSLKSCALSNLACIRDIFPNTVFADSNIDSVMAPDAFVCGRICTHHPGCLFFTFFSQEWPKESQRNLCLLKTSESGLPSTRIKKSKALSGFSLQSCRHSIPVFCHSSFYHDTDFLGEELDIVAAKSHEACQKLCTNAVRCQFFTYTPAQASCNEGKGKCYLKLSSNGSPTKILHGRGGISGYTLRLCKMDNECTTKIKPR

T1 sequence (P03952 391-638 limits assumed): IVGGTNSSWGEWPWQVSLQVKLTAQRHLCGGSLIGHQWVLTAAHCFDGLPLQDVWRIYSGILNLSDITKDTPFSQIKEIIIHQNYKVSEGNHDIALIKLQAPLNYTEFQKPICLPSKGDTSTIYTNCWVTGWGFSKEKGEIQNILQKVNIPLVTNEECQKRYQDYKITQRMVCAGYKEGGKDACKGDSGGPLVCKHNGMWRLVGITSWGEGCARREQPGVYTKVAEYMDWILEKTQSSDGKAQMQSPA
T1 sequence (P03952 20-390 partner limits assumed): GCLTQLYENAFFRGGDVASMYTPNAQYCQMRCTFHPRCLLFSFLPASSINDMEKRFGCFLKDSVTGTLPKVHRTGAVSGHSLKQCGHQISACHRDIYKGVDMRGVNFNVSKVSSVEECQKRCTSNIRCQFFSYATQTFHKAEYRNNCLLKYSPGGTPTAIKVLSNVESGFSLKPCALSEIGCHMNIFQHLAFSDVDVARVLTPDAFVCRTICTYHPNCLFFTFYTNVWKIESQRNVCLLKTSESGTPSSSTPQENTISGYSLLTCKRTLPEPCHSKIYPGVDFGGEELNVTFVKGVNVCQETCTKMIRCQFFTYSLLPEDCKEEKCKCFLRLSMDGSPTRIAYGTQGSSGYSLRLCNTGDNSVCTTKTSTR

Row | IC50 [1] [nM] | IC50 [2] [nM] | SMILES
1 | 0.6 | 7220 | C[C@H]1[C@@H](O)CCN1C[C@@H]1CCCN1c1ncc(Cn2cc(NC(=O)c3cncc(-c4c(C(F)F)ccc(Cl)c4F)n3)cn2)cn1 [Example 146, 6-(3-Chloro-6-(difluoromethyl)-2-fluorophenyl)-N-(1-((2-((S)-2-(((2S,3S)-3-hydroxy-2-methylpyrrolidin-1-yl)methyl)pyrrolidin-1-yl)pyrimidin-5-yl)methyl)-1H-pyrazol-4-yl)pyrazine-2-carboxamide]
2 | 0.6 | 2930 | O=C(Nc1cnn(Cc2cnc(N3CCCC3CN3CC[C@H](F)C3)nc2)c1)c1cncc(-c2c(C(F)F)ccc(Cl)c2F)n1 (stereo partly drawn) [Example 148, 6-(3-Chloro-6-(difluoromethyl)-2-fluorophenyl)-N-(1-((2-(2-(((S)-3-fluoropyrrolidin-1-yl)methyl)pyrrolidin-1-yl)pyrimidin-5-yl)methyl)-1H-pyrazol-4-yl)pyrazine-2-carboxamide]
3 | 20.7 | 1770 | CC(c1cnc(N2CCC2)cn1)n1cc(NC(=O)c2cncc(-c3c(C(F)F)ccc(Cl)c3F)n2)cn1 (single isomer, unassigned) [Example 29, (S or R)-N-(1-(1-(5-(azetidin-1-yl)pyrazin-2-yl)ethyl)-1H-pyrazol-4-yl)-6-(3-chloro-6-(difluoromethyl)-2-fluorophenyl)pyrazine-2-carboxamide]
4 | 0.5 | 366 | CC1(O)CN(C[C@@H]2[C@@H]3C[C@@H]3CN2c2ncc(Cn3cc(NC(=O)c4cncc(-c5c(C(F)F)ccc(Cl)c5F)n4)cn3)cn2)C1 [Example 145, 6-(3-Chloro-6-(difluoromethyl)-2-fluorophenyl)-N-(1-((2-((1R,2S,5S)-2-((3-hydroxy-3-methylazetidin-1-yl)methyl)-3-azabicyclo[3.1.0]hexan-3-yl)pyrimidin-5-yl)methyl)-1H-pyrazol-4-yl)pyrazine-2-carboxamide]
5 | 5.4 | 4640 | C[C@@H](c1cnc(N2C[C@@H]3C[C@@H]3[C@@H]2CO)nc1)n1cc(NC(=O)c2cncc(-c3c(C(F)F)ccc(Cl)c3F)n2)cn1 (single isomer, unassigned) [Example 76, 6-(3-Chloro-6-(difluoromethyl)-2-fluorophenyl)-N-(1-((S or R)-1-(2-((1S,2R,5R or 1R,2S,5S)-2-(hydroxymethyl)-3-azabicyclo[3.1.0]hexan-3-yl)pyrimidin-5-yl)ethyl)-1H-pyrazol-4-yl)pyrazine-2-carboxamide]
6 | 14.5 | 3580 | O=C(Nc1cnn(C2CCc3cc(N4CCC4)ncc32)c1)c1cncc(-c2c(C(F)F)ccc(Cl)c2F)n1 (single isomer, unassigned) [Example 119, (R or S)-N-(1-(3-(Azetidin-1-yl)-6,7-dihydro-5H-cyclopenta[c]pyridin-7-yl)-1H-pyrazol-4-yl)-6-(3-chloro-6-(difluoromethyl)-2-fluorophenyl)pyrazine-2-carboxamide]
7 | 18.5 | 5020 | C[C@@H](c1cnc(N2CC(F)C2)nc1)n1cc(NC(=O)c2cncc(-c3c(C(F)F)ccc(Cl)c3F)n2)cn1 [Example 92, (S)-6-(3-Chloro-6-(difluoromethyl)-2-fluorophenyl)-N-(1-(1-(2-(3-fluoroazetidin-1-yl)pyrimidin-5-yl)ethyl)-1H-pyrazol-4-yl)pyrazine-2-carboxamide]
8 | 10.3 | 1460 | O=C(Nc1cnn(C(CO)c2cnc(N3CC4CC4C3)nc2)c1)c1cncc(-c2c(C(F)F)ccc(Cl)c2F)n1 (single isomer, unassigned) [Example 44, N-(1-((S or R)-1-(2-(3-Azabicyclo[3.1.0]hexan-3-yl)pyrimidin-5-yl)-2-hydroxyethyl)-1H-pyrazol-4-yl)-6-(3-chloro-6-(difluoromethyl)-2-fluorophenyl)pyrazine-2-carboxamide]

Reference: patent US20230416227A1, “PLASMA KALLIKREIN INHIBITORS” (Merck Sharp & Dohme LLC, priority 2020, published 2023)
